We go through 16 molecules from ChEMBL document CHEMBL1201862, “PubChem BioAssay data set” (2004).

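Tested at 5 concentrations; 48 h exposure; 96-well plates; endpoints linearly interpolated, else capped at highest concentration. GI50 marks 50% less growth.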 Calls of active or inactive are those of the source. No stated cut-off is given here; in the data, active = GI50 up to about 1.1 µM and inactive = higher.

Among the test systems are 786-0; ACHN; CAKI-1; EKVX; HCT-15; IGROV-1; KM12; M14; Malme-3M; TK-10; UO-31; SF-539; U-251; HCT-116.
Experiment in all cases: growth of human tumour cells (NCI), 48 h

As to `CC(C)N1CCOC(c2ccc(O)c(O)c2)C1` (stereo not drawn), the GI50 with 786-0 was > 100 µM (inactive); with ACHN, > 100 µM (inactive); in the assay on CAKI-1, > 100 µM (inactive); in the assay with EKVX it was > 100 µM (inactive); in the assay with HCT-15 it was above 100 µM; in the assay on IGROV-1 it was > 100 µM (inactive). The GI50 in the assay with KM12, with M14, in the assay with Malme-3M, in the assay on TK-10 and in the assay on UO-31 was > 100 µM (inactive) each time.

With `CC(C)(C)[C@H]1CO[C@]2(c3ccccc3)[C@@H]3C[C@@H]3C(=O)N12`, the GI50 in the assay with 786-0 was > 100 µM (inactive); in the assay on ACHN, > 100 µM (inactive); in the assay on CAKI-1, > 100 µM (inactive); with EKVX, > 100 µM (inactive); in the assay on HCT-15, above 100 µM; in the assay on IGROV-1, > 100 µM (inactive). The GI50 with KM12, with M14, in the assay on Malme-3M, in the assay on SF-539, in the assay with TK-10 and in the assay on U-251 was > 100 µM (inactive) each time. The GI50 in the assay with UO-31 is > 100 µM (inactive).

In the case of `CC1CCCP(=O)(c2ccccc2)CCC1` (stereo not drawn), the GI50 in the assay with 786-0 is > 100 µM (inactive); with ACHN, > 100 µM (inactive); with CAKI-1, > 100 µM (inactive); with EKVX it was > 100 µM (inactive); in the assay on HCT-15 it was above 100 µM; in the assay with IGROV-1 it was > 100 µM (inactive). Also, the GI50 in the assay on KM12, in the assay on M14, in the assay on Malme-3M, in the assay on SF-539, in the assay on TK-10 and in the assay on U-251 was > 100 µM (inactive) throughout. In the assay on UO-31, the GI50 is > 100 µM (inactive).

Turning to `O=C1NC(=O)C2C1c1[nH]c3ccccc3c1C1CCCC12` (stereo not drawn), the GI50 with 786-0 is 5.02 µM (inactive); in the assay with ACHN, 22.3 µM (inactive); in the assay with EKVX it was 6.76 µM (inactive); in the assay with HCT-15 it was 1.49 µM; with IGROV-1, 14.1 µM (inactive); in the assay on KM12, 2.17 µM (inactive). Moreover, the GI50 in the assay with M14 was 1.73 µM (inactive); in the assay on Malme-3M it was 2.52 µM (inactive); with SF-539 it was 3.03 µM (inactive); with TK-10, 8.75 µM (inactive); with U-251 it was 3.1 µM (inactive); with UO-31 it was 6.55 µM (inactive).

On to `N#CC(C(=O)/C(=N/NC(=O)c1ccccc1O)C(C#N)c1ccccc1)c1ccccc1` (stereo not drawn), for which the GI50 is > 100 µM (inactive) with 786-0; > 100 µM (inactive) in the assay on ACHN; > 100 µM (inactive) with EKVX; > 100 µM (inactive) in the assay with HCT-116; above 100 µM with HCT-15; > 100 µM (inactive) in the assay on IGROV-1. Further, the GI50 with KM12, in the assay with M14, with Malme-3M, in the assay with SF-539, with TK-10 and with U-251 was > 100 µM (inactive) each time. Besides, in the assay with UO-31, the GI50 is > 100 µM (inactive).

For the molecule `Cc1nc(N)sc1C(=O)/C=C/c1ccc([N+](=O)[O-])cc1`, the GI50 in the assay with 786-0 was > 100 µM (inactive); in the assay with CAKI-1 it was > 100 µM (inactive); in the assay with EKVX, > 100 µM (inactive); in the assay with HCT-15, above 100 µM; with IGROV-1 it was > 100 µM (inactive); with KM12, > 100 µM (inactive). In addition, the GI50 in the assay with Malme-3M, in the assay with SF-539, in the assay with TK-10, with U-251 and in the assay on UO-31 was > 100 µM (inactive) each time.

With `Nc1ccc2ncc(NCc3ccc(F)cc3)nc2c1`, the GI50 with 786-0 is > 100 µM (inactive); in the assay with ACHN, 64.9 µM (inactive); with CAKI-1 it was 71.9 µM (inactive); in the assay with EKVX it was 62.7 µM (inactive); in the assay with HCT-116, > 100 µM (inactive); with HCT-15, above 100 µM. Besides, the GI50 in the assay on KM12 was > 100 µM (inactive); with M14, > 100 µM (inactive); in the assay with Malme-3M, > 100 µM (inactive); in the assay with SF-539, 39.6 µM (inactive); in the assay on TK-10 it was 97.3 µM (inactive); in the assay on U-251, > 100 µM (inactive). In addition, the GI50 in the assay on UO-31 was 16.4 µM (inactive).

On to `O=c1[nH]cnc2c(COCCO)c[nH]c12`, for which the GI50 in the assay with 786-0 was > 100 µM (inactive); in the assay on ACHN it was > 100 µM (inactive); in the assay on CAKI-1 it was > 100 µM (inactive); in the assay with EKVX, > 100 µM (inactive); in the assay on HCT-15, above 100 µM; in the assay with IGROV-1 it was > 100 µM (inactive). Besides, the GI50 in the assay with KM12, with M14, with Malme-3M, in the assay on SF-539, with TK-10 and in the assay with U-251 was > 100 µM (inactive) each time. Moreover, in the assay on UO-31, the GI50 was > 100 µM (inactive).

In the case of `CN(C)/C=C/C(=CC=[N+](C)C)/C=C/N(C)C.[O-][Cl+3]([O-])([O-])[O-]`, the GI50 in the assay on 786-0 is > 100 µM (inactive); in the assay on ACHN it was > 100 µM (inactive); in the assay with CAKI-1, 70.3 µM (inactive); in the assay with HCT-116 it was > 100 µM (inactive); in the assay with IGROV-1, > 100 µM (inactive); with KM12 it was > 100 µM (inactive). Moreover, the GI50 with M14, in the assay with Malme-3M, with SF-539, in the assay on TK-10, with U-251 and with UO-31 was > 100 µM (inactive) each time.

`COC(=O)C(C(=O)Cc1ccccc1[N+](=O)[O-])C(=O)OC`: the GI50 is > 100 µM (inactive) in the assay with 786-0; > 100 µM (inactive) in the assay with ACHN; > 100 µM (inactive) in the assay with CAKI-1; > 100 µM (inactive) in the assay with EKVX; > 100 µM (inactive) in the assay with HCT-116; above 100 µM in the assay with HCT-15. Besides, the GI50 in the assay with IGROV-1, in the assay on KM12, with M14, with Malme-3M, in the assay on SF-539 and in the assay with TK-10 was > 100 µM (inactive) each time. Moreover, the GI50 with UO-31 was > 100 µM (inactive).

Turning to `CCOC(=O)C1(C(=O)OCC)C(C(C)(C)C)=C(C)c2ccccc21`, the GI50 in the assay with 786-0 is 15.8 µM (inactive); in the assay on ACHN it was 13.2 µM (inactive); in the assay with EKVX it was 20.1 µM (inactive); in the assay on HCT-116, 6.75 µM (inactive); in the assay with HCT-15, 13.7 µM; in the assay with IGROV-1 it was 14.5 µM (inactive). Also, the GI50 in the assay with KM12 is 12.6 µM (inactive); in the assay on M14 it was 16.1 µM (inactive); in the assay on Malme-3M, 11.4 µM (inactive); with SF-539 it was 18.2 µM (inactive); in the assay with TK-10, 30.1 µM (inactive); in the assay with U-251, 15.3 µM (inactive). Also, the GI50 with UO-31 was 15.4 µM (inactive).

As to `CCOC(=O)c1c2ccc(/C=C/C(=O)OC)ccc-2c(C(=O)OCC)c1N`, the GI50 is > 100 µM (inactive) with 786-0; > 100 µM (inactive) in the assay with ACHN; > 100 µM (inactive) in the assay on CAKI-1; > 100 µM (inactive) in the assay on EKVX; above 100 µM in the assay with HCT-15; > 100 µM (inactive) with IGROV-1. The GI50 with KM12, with M14, in the assay with Malme-3M, with SF-539, in the assay with TK-10 and with UO-31 was > 100 µM (inactive) throughout.

For `CN(C)CC1CCC(CN(C)C)C1=NO` (stereo not drawn), the GI50 with 786-0 was > 100 µM (inactive); in the assay with ACHN it was > 100 µM (inactive); in the assay on CAKI-1 it was > 100 µM (inactive); with EKVX, > 100 µM (inactive); with HCT-116, > 100 µM (inactive); in the assay on HCT-15 it was above 100 µM. Also, the GI50 in the assay on IGROV-1, in the assay on M14, with Malme-3M, with SF-539, in the assay with TK-10 and with UO-31 was > 100 µM (inactive) in each case.

Take `NC(=S)N/N=C/C(=C/Nc1ccccc1)[N+](=O)[O-]`: the GI50 was > 100 µM (inactive) with 786-0; > 100 µM (inactive) in the assay on ACHN; > 100 µM (inactive) with CAKI-1; > 100 µM (inactive) with EKVX; > 100 µM (inactive) in the assay on HCT-116; above 100 µM with HCT-15. The GI50 with IGROV-1, in the assay with M14, with Malme-3M, in the assay on SF-539 and in the assay on TK-10 was > 100 µM (inactive) each time.

On to `CC(C)NCCCC(C)Nc1ccnc2ccc3nn(C)nc3c12` (stereo not drawn), for which the GI50 in the assay on 786-0 was 44.2 µM (inactive); in the assay with ACHN, 61.2 µM (inactive); in the assay on CAKI-1, 60.5 µM (inactive); in the assay on EKVX, > 100 µM (inactive); in the assay with HCT-116 it was 34.8 µM (inactive); with IGROV-1, > 100 µM (inactive). The GI50 is 50.8 µM (inactive) in the assay with KM12; 38.8 µM (inactive) with M14; 63 µM (inactive) in the assay with Malme-3M; 83.2 µM (inactive) with SF-539; > 100 µM (inactive) with TK-10; > 100 µM (inactive) in the assay with U-251. Further, in the assay with UO-31, the GI50 was 33.7 µM (inactive).

Take `COC(=O)[C@]12CCC(C)[C@H](C)[C@H]1C1=CCC3[C@@]4(C)CC[C@H](OC(C)=O)C(C)(C)C4CC[C@@]3(C)C1(C)C(O)C2` (stereo partly drawn): the GI50 in the assay on 786-0 is > 100 µM (inactive); in the assay with ACHN it was > 100 µM (inactive); with CAKI-1, > 100 µM (inactive); in the assay on EKVX it was > 100 µM (inactive); with HCT-116, 54.2 µM (inactive); with IGROV-1, > 100 µM (inactive). Moreover, the GI50 in the assay on KM12, in the assay with M14, in the assay with Malme-3M, in the assay with SF-539, in the assay on TK-10 and in the assay on U-251 was > 100 µM (inactive) in each case. Besides, in the assay with UO-31, the GI50 is > 100 µM (inactive).
